The results in this text go back to patent publication US11332459B2 (TEIJIN PHARMA LIMITED, priority 2017, dated 2022).

pIC50: −log10 of the molar value.

For this test, the target named is T1, human TRPC6 (Homo sapiens, UniProt Q9Y210).
T1 construct: expressed in transfected cells
T1 sequence (Q9Y210 1-931): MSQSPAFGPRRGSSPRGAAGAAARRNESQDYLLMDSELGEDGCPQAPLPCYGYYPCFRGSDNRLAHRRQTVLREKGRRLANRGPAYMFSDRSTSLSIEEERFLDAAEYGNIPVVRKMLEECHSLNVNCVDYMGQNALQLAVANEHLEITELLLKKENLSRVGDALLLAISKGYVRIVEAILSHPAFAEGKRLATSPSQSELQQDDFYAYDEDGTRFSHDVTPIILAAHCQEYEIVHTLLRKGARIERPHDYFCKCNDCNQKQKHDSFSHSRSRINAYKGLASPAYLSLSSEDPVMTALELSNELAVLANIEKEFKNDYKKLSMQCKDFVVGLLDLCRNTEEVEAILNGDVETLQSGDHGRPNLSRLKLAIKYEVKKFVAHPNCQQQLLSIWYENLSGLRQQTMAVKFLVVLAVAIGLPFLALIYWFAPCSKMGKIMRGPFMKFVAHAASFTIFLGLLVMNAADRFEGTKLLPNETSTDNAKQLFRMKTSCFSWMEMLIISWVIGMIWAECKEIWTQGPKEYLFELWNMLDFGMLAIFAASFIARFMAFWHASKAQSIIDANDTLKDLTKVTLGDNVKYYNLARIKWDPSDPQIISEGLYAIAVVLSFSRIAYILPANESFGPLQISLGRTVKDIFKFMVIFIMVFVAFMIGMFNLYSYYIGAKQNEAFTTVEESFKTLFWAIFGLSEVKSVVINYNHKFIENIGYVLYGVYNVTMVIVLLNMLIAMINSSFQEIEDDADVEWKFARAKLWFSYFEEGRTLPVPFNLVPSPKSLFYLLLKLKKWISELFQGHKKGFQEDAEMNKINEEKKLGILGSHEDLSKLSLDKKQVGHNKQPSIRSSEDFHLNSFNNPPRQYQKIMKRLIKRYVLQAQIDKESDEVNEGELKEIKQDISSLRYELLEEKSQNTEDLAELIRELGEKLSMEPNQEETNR
The experiment in a line: TRPC6 calcium flux assay (FLIPR, OAG-stimulated calcium influx). To be noted: HEK293 cells stably transfected with human TRPC6, read-out: hTRPC6 Potency. In kind it is cell-based. On the procedure:
Biological Example 1 TRPC6 Calcium Flux Assay
Potency of TRPC6 (Transient receptor potential channel family C6) inhibitors were measured by their inhibition of Calcium influx trigged by […] (1-Oleoyl-2-acetyl-sn-glycerol, Millipore Sigma, O6754) stimulation on HEK293 cells stablely transfected with human TRPC6 using a FLIPR tetra system. Cells were grown in a humidified environment at 37° C. under 5% CO2 using the growth medium with the following selective reagents (Dulbecco's Modified Eagle's Medium (DMEM) high glucose, 10% Fetal Bovine Serum, 1×PSGlu (penicillin-streptomycin glutamine), 1×NEAA (Non-essential amino acid), 1× Na Pyruvate and 200 ug/ml Hygromycin). For general passage, cells were grown to 70-90% confluency; the media was removed, and the cells were gently washed 2 times with calcium and magnesium free PBS (phosphate-buffered saline). Trypsin (3 mL) was applied for 5 minutes at 37° C. The cells were dislodged by rapping flask against base of a hand and 7 mL of growth medium was added to deactivate trypsin and re-suspend cells. The usual splitting schedule was 1:5 every 2-3 days.
Cells were plated the day before the assay, plating cell density is 1.0-1.5×10^4/25 μl/well in poly-D-lysine (PDL) coated 384-well plates using either multichannel pipettes or multidrop. These cells were first incubated with fluorescence dye at room temperature for 90-120 minutes after they were grown on PDL-coated 384-well black plates overnight (Dye loading buffer 10 ml example: 9 mL assay buffer, 1 mL, 10×PBX signal enhancer, 10 μL Calcium indicator). The cells were incubated with a dose of compounds for 25 minutes before being stimulated with TRPC6 agonist OAG. The OAG solution was prepared by adding OAG into assay buffer (Ca ringer solution base: 10 mM HEPES (4-(2-hydroxyethyl)-1-piperazine-ethanesulfonic acid), 4 mM MgCl2, 120 mM NaCl, 5 mM KCl, pH=7.2 @25° C.)+0.1% BSA+2 mM CaCl2) to the concentration of 0.2 mM/2% DMSO, which achieves a final on cell concentration of 50 uM/0.5% DMSO. 12.5 uL OAG mixture was added and the activation of the TRPC6 channel was measured by the change of intracellular Calcium levels on FLIPR terra system.
Data was acquired by measuring the fluorescent peak signal subtracted from the background during the 180 second imaging frame. Each data point is further normalized to 100% of OAG triggered signal vs. buffer. Table 16 provides the IC50 for each compound, which data is obtained by plotting peak signal over the compound dose.
For orientation: Calcium flux is commonly read through the fluorescence of an indicator in the cells.
With `N[C@@H]1CN(c2nc3cc(F)c(F)cc3n2CC(=O)N2CCCc3cccnc32)CC[C@H]1F` [Example 630, 2-(2-((3R,4R)-3-amino-4-fluoropiperidin-1-yl)-5,6-difluoro-1H-benzo[d]imidazol-1-yl)-1-(3,4-dihydro-1,8-naphthyridin-1(2H)-yl)ethanone], the pIC50 was 6.76.
The figure for `COc1ccc2c(c1)nc(N1CCC[C@@H](N)C1)n2Cc1ccc(C#N)cc1` [Example 186, (R)-4-((2-(3-aminopiperidin-1-yl)-5-methoxy-1H-benzo[d]imidazol-1-yl)methyl)benzonitrile] is 6.56.
Take `C[C@H](c1ccc(C#N)cn1)n1c(N2CC[C@H]3OCCN[C@@H]3C2)nc2c(F)cc(F)cc21` [Example 267, 6-((1R)-1-(4,6-difluoro-2-((4aR,8aR)-hexahydro-2H-pyrido[4,3-b][1,4]oxazin-6(5H)-yl)-1H-benzimidazol-1-yl)ethyl)-3-pyridinecarbonitrile]: the pIC50 was less than 4.30.
The same measure for `CN(CC#N)C(=O)Cn1c(N2CC[C@@H](F)[C@H](N)C2)nc2cc(F)c(F)cc21` [Example 615, 2-(2-((3R,4R)-3-amino-4-fluoropiperidin-1-yl)-5,6-difluoro-1H-benzo[d]imidazol-1-yl)-N-(cyanomethyl)-N-methylacetamide]: 7.55; for `N[C@@H]1CN(c2nc3cc(C(F)(F)F)ccc3n2CC(=O)N2CCC2)CC[C@@H]1F` [Example 309, 2-(2-((3R,4S)-3-amino-4-fluoropiperidin-1-yl)-5-(trifluoromethyl)-1H-benzo[d]imidazol-1-yl)-1-(azetidin-1-yl)ethan-1-one]: 6.55; for `C[C@@H](c1ccc(F)cc1F)n1c(N2CC[C@@H](F)[C@H](N)C2)nc2cc(F)c(F)cc21` [Example 331, (3R,4R)-1-(1-((1S)-1-(2,4-difluorophenyl)ethyl)-5,6-difluoro-1H-benzimidazol-2-yl)-4-fluoro-3-piperidinamine]: 6.69.
The figure for `Cc1nnc(Cn2c(N3CC[C@@H](F)[C@H](N)C3)nc3cc(F)ccc32)s1` [Example 582, (3R,4R)-4-fluoro-1-(5-fluoro-1-((5-methyl-1,3,4-thiadiazol-2-yl)methyl)-1H-benzo[d]imidazol-2-yl)piperidin-3-amine] is 6.42; for `Cc1nnc(Cn2c(N3CC[C@@H](F)[C@H](N)C3)nc3cc(F)c(F)cc32)s1` [Example 553, (3R,4R)-1-(5,6-difluoro-1-((5-methyl-1,3,4-thiadiazol-2-yl)methyl)-1H-benzo[d]imidazol-2-yl)-4-fluoropiperidin-3-amine] it is 8.17; for `N#Cc1cc(F)cc2c1nc(N1CC[C@H](F)[C@H](N)C1)n2Cc1ncc(F)cn1` [Example 36, 2-((3R,4S)-3-amino-4-fluoropiperidin-1-yl)-6-fluoro-1-((5-fluoropyrimidin-2-yl)methyl)-1H-benzo[d]imidazole-4-carbonitrile] it is 8.21.
The same measure for `CN[C@@H]1CN(c2nc3cc(C#N)ccc3n2Cc2ncc(Cl)cn2)CC[C@H]1F` [Example 284, 1-((5-chloro-2-pyrimidinyl)methyl)-2-((3R,4R)-4-fluoro-3-(methylamino)-1-piperidinyl)-1H-benzimidazole-5-carbonitrile]: 6.65; for `N[C@@H]1CN(c2nc3ccc(F)cc3n2CC(=O)N2CCOC[C@H]2CO)CC[C@H]1F` [Example 686, 2-(2-((3R,4R)-3-amino-4-fluoropiperidin-1-yl)-6-fluoro-1H-benzo[d]imidazol-1-yl)-1-((R)-3-(hydroxymethyl)morpholino) ethan-1-one]: 5.80.
For `CNC(=O)c1ccc(Cn2c(N3CCC[C@@H](N)C3)nc3ccccc32)cc1` [Example 382, (R)-4-((2-(3-aminopiperidin-1-yl)-1H-benzo[d]imidazol-1-yl)methyl)-N-methylbenzamide], the pIC50 was less than 4.30.
Take `N[C@@H]1CN(c2nc3cc(F)c(F)cc3n2CC(=O)N2CC(n3cncn3)C2)CC[C@H]1F` [Example 641, 1-(3-(1H-1,2,4-triazol-1-yl)azetidin-1-yl)-2-(2-((3R,4R)-3-amino-4-fluoropiperidin-1-yl)-5,6-difluoro-1H-benzo[d]imidazol-1-yl)ethanone]: the pIC50 is 5.89.
The same measure for `C[C@H]1CCN(c2nc3ccccc3n2Cc2ccc(C#N)cc2)C[C@H]1N` [Example 180, 4-((2-((3S,4S)-3-amino-4-methylpiperidin-1-yl)-1H-benzo[d]imidazol-1-yl)methyl)benzonitrile 2,2,2-trifluoroacetate]: 7.83.
The figure for `CN(CC(F)F)C(=O)Cn1c(N2CC[C@@H](F)[C@H](N)C2)nc2cc(F)c(F)cc21` (single isomer, unassigned) [Example 634] is 6.59; for `N[C@@H]1CN(c2nc3cc(F)c(F)cc3n2CC(=O)N(C2CC2)C2CCS(=O)(=O)C2)CC[C@H]1F` (stereo partly drawn) [Example 526, 2-(2-((3R,4R)-3-amino-4-fluoropiperidin-1-yl)-5,6-difluoro-1H-benzo[d]imidazol-1-yl)-N-cyclopropyl-N-(1,1-dioxidotetrahydrothiophen-3-yl)acetamide] it is 5.55.
As to `N[C@@H]1CN(c2nc3cc(F)c(F)cc3n2CC(=O)N2CCCC2)CC[C@H]1F` [Example 277, 2-(2-((3R,4R)-3-amino-4-fluoro-1-piperidinyl)-5,6-difluoro-1H-benzimidazol-1-yl)-1-(1-pyrrolidinyl)ethanone], the pIC50 was 9.31.
The figure for `Cc1ccc2c(c1)nc(N1CC[C@@H](F)[C@H](N)C1)n2Cc1ccc(C#N)cn1` [Example 110, 6-((2-((3R,4R)-3-amino-4-fluoro-1-piperidinyl)-5-methyl-1H-benzimidazol-1-yl)methyl)-3-pyridinecarbonitrile] is 8.91; for `C[C@@H](c1cc(F)ccc1F)n1c(N2CC[C@@H](F)[C@H](N)C2)nc2cc(F)c(F)cc21` [Example 335, (3R,4R)-1-(1-((1S)-1-(2,5-difluorophenyl)ethyl)-5,6-difluoro-1H-benzimidazol-2-yl)-4-fluoro-3-piperidinamine] it is less than 5.43; for `N#Cc1ccc(Cn2c(N3CC[C@@H](F)[C@H](N)C3)nc3ccc(C(F)(F)F)cc32)nc1` [Example 14, 6-((2-((3R,4R)-3-amino-4-fluoropiperidin-1-yl)-6-(trifluoromethyl)-1H-benzo[d]imidazol-1-yl)methyl)nicotinonitrile] it is 9.42.
The figure for `Cc1nnc(Cn2c(N3CCC(F)(F)[C@H](N)C3)nc3ccc(F)cc32)s1` [Example 588, (R)-4,4-difluoro-1-(6-fluoro-1-((5-methyl-1,3,4-thiadiazol-2-yl)methyl)-1H-benzo[d]imidazol-2-yl)piperidin-3-amine] is 6.09.
The same measure for `CN(CC(F)(F)F)C(=O)Cn1c(N2CCC(F)(F)[C@H](N)C2)nc2cc(F)ccc21` [Example 482, (R)-2-(2-(3-amino-4,4-difluoropiperidin-1-yl)-5-fluoro-1H-benzo[d]imidazol-1-yl)-N-methyl-N-(2,2,2-trifluoroethyl)acetamide]: 5.56.
